PMC5822518 (Pharmacognosy Magazine, 2018)
Entries after “also recorded” stand apart in the source; their conditions may differ. Where two headings read alike, the source gives them in different places.

Tests used:
[1] = biological target: T1, CYP1A2 (Homo sapiens, UniProt P05177); test: CYP1A2 fluorescence-based high throughput inhibition assay; assay type: in vitro ADME; conditions: graded by inhibition evaluation standards
T1 sequence (P05177 1-516): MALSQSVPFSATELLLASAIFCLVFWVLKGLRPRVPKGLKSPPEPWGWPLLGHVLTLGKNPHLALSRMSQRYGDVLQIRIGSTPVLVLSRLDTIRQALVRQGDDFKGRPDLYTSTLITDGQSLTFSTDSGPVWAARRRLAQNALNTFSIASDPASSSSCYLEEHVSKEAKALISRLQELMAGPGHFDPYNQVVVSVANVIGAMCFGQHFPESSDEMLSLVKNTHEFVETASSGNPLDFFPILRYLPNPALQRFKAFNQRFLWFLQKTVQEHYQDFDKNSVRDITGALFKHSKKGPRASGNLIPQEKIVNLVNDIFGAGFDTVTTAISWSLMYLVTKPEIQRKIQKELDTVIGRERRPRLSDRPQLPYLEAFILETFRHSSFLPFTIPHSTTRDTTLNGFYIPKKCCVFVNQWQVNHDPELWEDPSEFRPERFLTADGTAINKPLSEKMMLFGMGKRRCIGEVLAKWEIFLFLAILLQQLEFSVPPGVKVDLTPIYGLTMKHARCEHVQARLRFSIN

[2] = biological target: CYP2E1 (Homo sapiens, UniProt P05181); test: CYP2E1 inhibition, HPLC-UV assay of 6-hydroxychlorzoxazone formation; assay type: in vitro ADME; conditions: graded by inhibition evaluation standards
Sequence of CYP2E1 (P05181 whole entry): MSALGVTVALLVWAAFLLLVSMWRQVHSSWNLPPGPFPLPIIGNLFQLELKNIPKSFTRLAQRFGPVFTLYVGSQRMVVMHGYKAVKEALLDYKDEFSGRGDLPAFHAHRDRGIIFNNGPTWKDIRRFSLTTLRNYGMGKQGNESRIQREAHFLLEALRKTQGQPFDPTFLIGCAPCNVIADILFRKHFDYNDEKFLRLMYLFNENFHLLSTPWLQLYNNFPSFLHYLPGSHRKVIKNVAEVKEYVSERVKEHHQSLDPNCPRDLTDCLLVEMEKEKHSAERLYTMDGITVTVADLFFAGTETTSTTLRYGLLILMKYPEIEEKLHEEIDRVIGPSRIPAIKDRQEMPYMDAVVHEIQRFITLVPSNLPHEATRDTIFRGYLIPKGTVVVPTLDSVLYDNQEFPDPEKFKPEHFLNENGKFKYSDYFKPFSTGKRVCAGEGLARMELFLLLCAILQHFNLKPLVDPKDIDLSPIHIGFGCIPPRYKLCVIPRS

[3] = test system: rheumatoid arthritis; conditions: 500 mg daily for 8 weeks, 50 women with rheumatoid arthritis; cited from earlier work
[4] = biological target: CYP3A4 (Homo sapiens, UniProt P08684); test: CYP3A4 fluorescence-based high throughput inhibition assay; assay type: in vitro ADME; conditions: graded by inhibition evaluation standards
Sequence of CYP3A4 (P08684 whole entry): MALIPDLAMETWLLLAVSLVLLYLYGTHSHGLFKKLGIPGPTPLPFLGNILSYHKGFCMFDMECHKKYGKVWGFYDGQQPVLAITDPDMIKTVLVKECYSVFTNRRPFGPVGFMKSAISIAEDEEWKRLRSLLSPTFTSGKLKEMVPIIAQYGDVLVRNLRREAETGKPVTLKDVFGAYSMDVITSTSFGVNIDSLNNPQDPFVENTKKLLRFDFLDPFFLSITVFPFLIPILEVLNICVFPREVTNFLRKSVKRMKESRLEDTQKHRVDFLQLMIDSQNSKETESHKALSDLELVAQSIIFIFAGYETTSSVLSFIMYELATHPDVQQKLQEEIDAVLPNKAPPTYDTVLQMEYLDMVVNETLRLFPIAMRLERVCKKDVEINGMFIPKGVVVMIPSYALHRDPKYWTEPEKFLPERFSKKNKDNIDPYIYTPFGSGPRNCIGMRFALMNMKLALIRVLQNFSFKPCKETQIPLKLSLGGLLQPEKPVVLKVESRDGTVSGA

[5] = biological target: T2, CYP2D6 (Homo sapiens, UniProt P10635); conditions: HLMs; cited from earlier work
T2 sequence (P10635 whole entry): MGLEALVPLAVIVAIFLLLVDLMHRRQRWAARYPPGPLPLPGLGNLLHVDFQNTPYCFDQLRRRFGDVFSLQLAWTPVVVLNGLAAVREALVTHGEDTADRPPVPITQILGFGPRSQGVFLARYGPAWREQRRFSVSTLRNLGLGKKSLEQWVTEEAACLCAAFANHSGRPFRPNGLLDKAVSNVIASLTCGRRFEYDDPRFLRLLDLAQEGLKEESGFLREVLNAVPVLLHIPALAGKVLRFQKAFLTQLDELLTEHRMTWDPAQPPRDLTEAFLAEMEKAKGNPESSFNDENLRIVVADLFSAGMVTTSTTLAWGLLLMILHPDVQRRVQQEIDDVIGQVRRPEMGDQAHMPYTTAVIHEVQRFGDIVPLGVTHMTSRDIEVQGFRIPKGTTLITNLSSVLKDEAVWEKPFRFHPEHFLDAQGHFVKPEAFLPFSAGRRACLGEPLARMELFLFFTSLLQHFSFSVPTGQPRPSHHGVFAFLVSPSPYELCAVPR

[6] = biological target: T3, CYP2C19 (Homo sapiens, UniProt P33261); test: CYP2C19 fluorescence-based high throughput inhibition assay; assay type: in vitro ADME; conditions: graded by inhibition evaluation standards
T3 sequence (P33261 whole entry): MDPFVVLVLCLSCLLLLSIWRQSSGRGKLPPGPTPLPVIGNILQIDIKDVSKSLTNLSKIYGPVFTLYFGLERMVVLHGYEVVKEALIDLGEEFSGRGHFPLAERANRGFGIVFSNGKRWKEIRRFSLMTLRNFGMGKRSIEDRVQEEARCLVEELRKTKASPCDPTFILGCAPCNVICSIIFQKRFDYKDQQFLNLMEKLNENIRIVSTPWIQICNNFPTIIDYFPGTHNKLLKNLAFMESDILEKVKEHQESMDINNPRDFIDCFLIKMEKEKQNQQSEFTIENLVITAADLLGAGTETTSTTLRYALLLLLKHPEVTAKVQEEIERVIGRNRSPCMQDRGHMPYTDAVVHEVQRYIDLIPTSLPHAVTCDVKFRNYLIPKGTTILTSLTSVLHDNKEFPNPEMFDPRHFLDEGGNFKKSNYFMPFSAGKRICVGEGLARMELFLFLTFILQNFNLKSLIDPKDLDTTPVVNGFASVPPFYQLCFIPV

[7] = biological target: T3, CYP2C19; conditions: HLMs; cited from earlier work
[8] = biological target: T2, CYP2D6; test: CYP2D6 fluorescence-based high throughput inhibition assay; assay type: in vitro ADME; conditions: graded by inhibition evaluation standards
[9] = test system: CYP3A2; conditions: diabetic rats, single dose TQ; cited from earlier work
[10] = cited from earlier work

| inhibitory effect on CYP3A4 activity (in words) [4] | inhibitory effect on CYP2D6 activity (in words) [8] | Structure (SMILES) | inhibitory effect on CYP1A2 activity (in words) [1] | inhibitory effect on CYP2E1 activity (in words) [2] | clinical symptoms, disease activity, hs-TNF-α and erythrocyte sedimentation rate [3] | inhibition of CYP2D6 (in words) [5] | inhibitory effect on CYP2C19 activity (in words) [6] | inhibition of CYP2C19 (in words) [7] | hepatic protein expressions of CYP3A2 enzymes [9] | increase in t½ of glibenclamide ([10]; chronic administration of TQ) [%] | increase in AUC of glibenclamide ([10]; diabetic rats, single dose TQ) [%] | increase in t½ of glibenclamide ([10]; diabetic rats, single dose TQ) [%] |
| --- | --- | --- | --- | --- | --- | --- | --- | --- | --- | --- | --- | --- |
| moderate to strong inhibitory effect | strong inhibitory effect | O=c1c(O)c(-c2ccc(O)c(O)c2)oc2cc(O)cc(O)c12 [QR, Quercetin] | neither QR nor TQ has any significant inhibitory effect | neither QR nor TQ has any significant inhibitory effect | significant improvements | moderate competitive inhibitor | moderate inhibitory effect; also recorded: moderate inhibitors | potent competitive inhibitor | – | – | – | – |
| moderate to strong inhibitory effect | no inhibitory effect | CC1=CC(=O)C(C(C)C)=CC1=O [TQ, Thymoquinone] | neither QR nor TQ has any significant inhibitory effect | neither QR nor TQ has any significant inhibitory effect | – | – | moderate inhibitory effect | – | marked decrease | 92 | 32.0 | 17.4 |
